Measured values reported in patent US20110230478A1 (Bayer ScienceCrop AG, priority 2008, published 2011).

How the values were obtained:
[1] = logP by HPLC on reversed-phase columns (C 18), EEC Directive 79/831 Annex V.A8; assay type: physicochemical
Fusarium proliferatum = experiment: Production of Fumonisin FB1 by Fusarium proliferatum (microtitre plate, FB1 by HPLC-MS/MS, growth by OD); assay type: cell-based; details: for pI50 Fum: FB1 concentration in medium after 6 days at 20° C., HPLC-MS/MS; for pI50 growth: OD620 at the beginning and after 6 days
Gibberella zeae = details: in vivo
Fusarium graminearum = assay type: cell-based; details: 50 µM
[2] = values marked [b], footnote not given
[3] = values marked [c], footnote not given

Structure (SMILES)	logP [1, 2]	pI50 Fum (Fusarium proliferatum)	pI50 growth (Fusarium proliferatum)	logP ([1]; values marked [a], pH 2.3)	logP [1, 3]	efficacy (Gibberella zeae)	growth inhibition of Fusarium graminearum (Fusarium graminearum)	inhibitory activity of DON/AcDON (Fusarium graminearum)
COCC(C)Nc1nc(Nc2ccc(C(C)=O)cc2)ncc1Cl (stereo not shown) [Example 152]	2.02[b]	5	<4.3					
CSc1cccc(Nc2ncc(Cl)c(NC(C)C)n2)c1 [Example 173]		4.8	<4.3	2.36[a];	3.89[c]	≥ 80%		
CC(C)Nc1nc(Nc2ccc(CC(=O)C(C)(C)C)cc2)ncc1Cl [Example 199]	2.3[b]		4.9					
CNC(=O)Oc1cccc(Nc2ncc(Cl)c(NC(C)C)n2)c1 [Example 203]	1.53[b]		4.6					
CC(C)Nc1nc(Nc2cccc(O)c2)ncc1Cl [Example 214]	1.39[b]	6	<4.3					
CCCC(CC)Nc1nc(Nc2ccccc2)ncc1Br (stereo not shown) [Example 228]			<4.3	2.44[a]				
CCc1cccc(Nc2ncc(Cl)c(NC(C)C)n2)c1 [Example 230]	2.33[b]				4.25[c];		86%	> 80%
CC(C)Nc1nc(Nc2ccc(C(=O)N(C)C)cc2)ncc1Cl [Example 234]	1.44[b]	5.3	4.6		2.27[c];			
